Results: US10973794B2, “Dental composition and use” (CALSCIENCE INTERNATIONAL LTD., priority 2015, dated 2021)

Legend:
[1] = test system: human foreskin fibroblasts (HFFs); test: WST-1 Cell Proliferation Assay; assay type: cell-based
Procedure: (§1) The following results relate to the analysis of senescence tests on 1,5-Dicaffeoylquinic Acid (1,5-DCQA). FIG. 8 relates to 1,4-DCQA. The experiments were conducted using human foreskin fibroblasts (HFFs).
The WST-1 Cell Proliferation Assay provides a sensitive and accurate assay for cell proliferation and cytotoxicity (cell viability). The WST assay is based on the cleavage of the tetrazolium salt WST-1 to formazan by cellular mitochondrial dehydrogenases. Expansion in the number of viable cells results in an increase in the overall activity of the mitochondrial dehydrogenases in the sample. The augmentation in enzyme activity results in an increase in the amount of formazan dye formed. The formazan dye produced by viable cells was quantified by a multi-well spectrophotometer by measuring the absorbance of the dye solution at 440 nm. The compound provided was tested in the WST assay over a range of dilutions. […] The results of the assay show the standard deviation (SD) for 1,5-DCQA and the control, and the mean values for 1,5-DCQA and the control.

[2] = test system: Sirtuin 3 (SIRT3); test: Taqman Real Time-PCR expression of Sirtuin 3 in HFFs with and without H2O2 stress-induced premature senescence; assay type: cell-based, human; conditions: following oxidant challenge, FIG. 7
Procedure: as §1
(§2) In the following experiments, HFFs were challenged for a period of two hours with 150 μM hydrogen peroxide (H2O2), to stimulate premature senescence in the presence and absence of 1,5-DCQA (1/1000 dilution), and subsequently assayed by Taqman Real Time-PCR for the expression of key senescence associated genes.
(§3) These genes are involved in cell cycle regulation and mitochondrial stress responses. Challenge with a near lethal level of oxidant stress typically induces an increase in SIRT2 and decrease in SIRT3 expression. […] This is indicative of each having a potential for stimulating cell proliferation in the absence of oxidant challenge.
(§4) The results shown in Table 2 and FIGS. 2 to 7 were generated using the polymerase chain reaction (PCR), wherein the dCt and ddCT values are results used in statistical analysis. The abbreviation dCt relates to “delta cycle threshold” and the abbreviation ddCt relates to “delta delta cycle threshold”. In these experiments, HPRT (hypoxanthine phosphoribosyltransferase, a protein from the HPRT-1 gene) was used as a control.

[3] = test system: XRCC5; test: Taqman Real Time-PCR expression of XRCC5 in HFFs with and without H2O2 stress-induced premature senescence; assay type: cell-based, human; conditions: with and without 150 μM H2O2, FIG. 4
Procedure: as §1, §2
XRCC5 is a double strand break repair protein.
as §4

[4] = test system: p16; test: Taqman Real Time-PCR expression of p16 in HFFs with and without H2O2 stress-induced premature senescence; assay type: cell-based, human
Procedure: as §1, §2, §4

[5] = test system: Sirtuin 2 (SIRT2); test: Taqman Real Time-PCR expression of Sirtuin 2 in HFFs with and without H2O2 stress-induced premature senescence; assay type: cell-based, human; conditions: without stress, FIG. 6
Procedure: as §1, §2, §3, §4

O=C(/C=C/c1ccc(O)c(O)c1)O[C@@H]1C[C@](OC(=O)/C=C/c2ccc(O)c(O)c2)(C(=O)O)C[C@@H](O)[C@H]1O [1,5-DCQA, 1,5-Dicaffeoylquinic Acid]
effect on cell viability (WST assay) ([1]; 1/1000 and 2/1000 dilutions): beneficial to cell viability
Mean (WST-1 assay, absorbance at 440 nm) ([1]; dilution 1/1000): 0.916
Mean (WST-1 assay, absorbance at 440 nm) ([1]; dilution 2/1000): 0.868
Mean (WST-1 assay, absorbance at 440 nm) ([1]; dilution 3/1000): 0.717
Mean (WST-1 assay, absorbance at 440 nm) ([1]; dilution 4/1000): 0.363
Mean (WST-1 assay, absorbance at 440 nm) ([1]; dilution 5/1000): 0.178
Mean (WST-1 assay, absorbance at 440 nm) ([1]; dilution 6/1000): 0.300
Mean (WST-1 assay, absorbance at 440 nm) ([1]; dilution 7/1000): 0.419
Mean (WST-1 assay, absorbance at 440 nm) ([1]; dilution 8/1000): 0.196
Mean (WST-1 assay, absorbance at 440 nm) ([1]; dilution 9/1000): 0.115
Mean (WST-1 assay, absorbance at 440 nm) ([1]; dilution 10/1000): 0.069
change in SIRT3 expression [2]: increase in SIRT3 expression
expression of XRCC5 in comparison with the control data set [3]: substantially unaltered expression
effect on p16 expression following oxidant challenge ([4]; 150 μM H2O2, FIG. 2): excellent protection from oxidant challenge
effect on p16 expression in untreated cells ([4]; no H2O2, FIG. 2): no stress effect on untreated cells
change in SIRT2 expression [5]: significant decrease in SIRT2 expression
